# Experiments:
# [1] = target: T1, Uncharacterized serine/threonine-protein kinase SBK3 (Homo sapiens) (UniProt P0C264); assay: Selectivity interaction (KinomeScan (DiscoverX)) EUB0001049a SBK3; conditions: at 1 µM
# T1 sequence (whole entry): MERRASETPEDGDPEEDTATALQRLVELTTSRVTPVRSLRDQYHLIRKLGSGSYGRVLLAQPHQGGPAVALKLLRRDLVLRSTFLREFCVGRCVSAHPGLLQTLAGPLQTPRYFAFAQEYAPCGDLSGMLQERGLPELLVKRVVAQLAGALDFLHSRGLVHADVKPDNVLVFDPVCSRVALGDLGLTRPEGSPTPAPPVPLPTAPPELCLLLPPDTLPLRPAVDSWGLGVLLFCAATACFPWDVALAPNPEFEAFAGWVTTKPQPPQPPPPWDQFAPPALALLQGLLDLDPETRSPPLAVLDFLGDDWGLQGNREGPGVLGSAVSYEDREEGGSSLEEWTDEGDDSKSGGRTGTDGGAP
# [2] = target: Tyrosine-protein kinase Lck (Homo sapiens, UniProt P06239); assay: Selectivity interaction (Kinase panel (literature)) EUB0001199aCl LCK; conditions: at 1 µM
# Chain of Tyrosine-protein kinase Lck (P06239 2-509 limits assumed): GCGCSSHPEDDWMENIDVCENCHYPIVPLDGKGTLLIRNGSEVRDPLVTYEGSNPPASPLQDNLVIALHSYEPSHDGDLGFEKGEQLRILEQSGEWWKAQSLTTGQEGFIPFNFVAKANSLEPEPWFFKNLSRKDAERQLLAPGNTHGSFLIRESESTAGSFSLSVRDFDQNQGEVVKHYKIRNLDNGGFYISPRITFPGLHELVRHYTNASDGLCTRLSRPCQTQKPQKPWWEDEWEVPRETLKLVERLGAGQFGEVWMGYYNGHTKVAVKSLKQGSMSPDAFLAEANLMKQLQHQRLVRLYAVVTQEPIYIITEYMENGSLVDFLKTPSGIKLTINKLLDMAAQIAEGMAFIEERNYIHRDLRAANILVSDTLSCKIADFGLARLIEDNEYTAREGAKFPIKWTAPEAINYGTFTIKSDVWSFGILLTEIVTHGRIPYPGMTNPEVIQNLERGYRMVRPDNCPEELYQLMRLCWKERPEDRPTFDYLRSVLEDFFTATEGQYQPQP
# [3] = target: T2, Serine/threonine-protein kinase ULK2 (Homo sapiens) (UniProt Q8IYT8); assay: Selectivity interaction (KinomeScan (DiscoverX)) EUB0001079a ULK2; conditions: at 1 µM
# T2 sequence (whole entry): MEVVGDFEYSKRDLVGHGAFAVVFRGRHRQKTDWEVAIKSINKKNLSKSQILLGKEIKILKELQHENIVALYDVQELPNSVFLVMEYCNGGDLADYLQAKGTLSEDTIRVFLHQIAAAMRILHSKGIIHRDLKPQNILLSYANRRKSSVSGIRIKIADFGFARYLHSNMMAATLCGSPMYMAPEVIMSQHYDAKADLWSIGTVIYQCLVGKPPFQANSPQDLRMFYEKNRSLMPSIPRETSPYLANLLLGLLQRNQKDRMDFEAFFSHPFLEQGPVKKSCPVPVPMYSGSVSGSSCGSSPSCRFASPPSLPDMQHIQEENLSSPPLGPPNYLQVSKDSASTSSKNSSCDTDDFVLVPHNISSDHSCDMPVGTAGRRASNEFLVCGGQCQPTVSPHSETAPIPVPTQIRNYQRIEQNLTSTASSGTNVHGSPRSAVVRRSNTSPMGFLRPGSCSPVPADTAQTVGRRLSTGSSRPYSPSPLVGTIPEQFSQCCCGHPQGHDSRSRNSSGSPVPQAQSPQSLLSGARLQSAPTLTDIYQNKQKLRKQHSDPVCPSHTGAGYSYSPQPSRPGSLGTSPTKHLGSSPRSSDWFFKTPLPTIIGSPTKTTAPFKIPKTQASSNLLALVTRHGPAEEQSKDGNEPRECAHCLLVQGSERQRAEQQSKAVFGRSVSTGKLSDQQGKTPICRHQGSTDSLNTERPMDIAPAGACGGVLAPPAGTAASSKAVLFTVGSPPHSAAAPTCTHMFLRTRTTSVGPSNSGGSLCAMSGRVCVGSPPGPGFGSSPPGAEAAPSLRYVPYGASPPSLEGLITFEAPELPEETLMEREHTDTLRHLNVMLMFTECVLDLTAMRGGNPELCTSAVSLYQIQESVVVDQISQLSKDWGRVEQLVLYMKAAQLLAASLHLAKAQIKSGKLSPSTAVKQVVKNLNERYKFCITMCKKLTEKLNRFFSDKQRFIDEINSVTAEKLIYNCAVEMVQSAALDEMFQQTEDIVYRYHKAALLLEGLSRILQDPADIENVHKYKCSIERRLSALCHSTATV
# [4] = target: T3, Bromodomain and PHD finger-containing protein 3 (Homo sapiens) (UniProt Q9ULD4); assay: Selectivity interaction (Human bromodomain panel (DSF assay)) EUB0000233b BRPF3
# T3 sequence (whole entry): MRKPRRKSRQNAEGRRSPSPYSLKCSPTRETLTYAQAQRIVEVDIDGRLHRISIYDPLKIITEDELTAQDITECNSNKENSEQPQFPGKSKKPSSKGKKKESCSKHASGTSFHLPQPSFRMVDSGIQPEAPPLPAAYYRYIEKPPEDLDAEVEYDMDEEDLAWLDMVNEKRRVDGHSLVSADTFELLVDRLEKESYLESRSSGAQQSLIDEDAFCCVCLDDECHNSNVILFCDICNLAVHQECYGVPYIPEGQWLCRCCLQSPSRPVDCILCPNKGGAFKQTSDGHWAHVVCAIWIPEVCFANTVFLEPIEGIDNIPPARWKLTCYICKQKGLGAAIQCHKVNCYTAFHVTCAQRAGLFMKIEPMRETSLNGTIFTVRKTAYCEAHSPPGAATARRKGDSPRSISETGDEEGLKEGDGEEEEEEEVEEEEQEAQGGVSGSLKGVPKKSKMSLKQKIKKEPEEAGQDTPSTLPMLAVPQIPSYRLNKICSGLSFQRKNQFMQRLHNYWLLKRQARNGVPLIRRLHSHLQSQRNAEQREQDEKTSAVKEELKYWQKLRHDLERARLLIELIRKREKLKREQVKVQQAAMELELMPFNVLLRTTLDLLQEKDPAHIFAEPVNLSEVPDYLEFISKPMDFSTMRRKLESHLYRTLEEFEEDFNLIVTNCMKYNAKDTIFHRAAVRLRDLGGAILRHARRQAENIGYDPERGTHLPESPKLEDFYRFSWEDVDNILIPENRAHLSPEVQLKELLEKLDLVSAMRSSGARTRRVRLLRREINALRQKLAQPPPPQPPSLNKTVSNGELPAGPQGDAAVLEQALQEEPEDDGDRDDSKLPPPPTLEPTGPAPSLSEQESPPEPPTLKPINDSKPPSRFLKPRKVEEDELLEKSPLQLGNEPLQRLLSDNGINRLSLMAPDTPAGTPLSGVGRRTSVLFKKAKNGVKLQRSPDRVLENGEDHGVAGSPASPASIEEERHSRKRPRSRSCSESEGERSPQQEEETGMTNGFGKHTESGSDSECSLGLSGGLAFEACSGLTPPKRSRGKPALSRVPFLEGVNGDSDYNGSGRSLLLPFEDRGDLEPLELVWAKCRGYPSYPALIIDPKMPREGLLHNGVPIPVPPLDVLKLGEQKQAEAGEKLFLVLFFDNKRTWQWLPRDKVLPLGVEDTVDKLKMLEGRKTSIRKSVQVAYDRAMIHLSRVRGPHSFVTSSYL
# [5] = target: Serine/threonine-protein kinase 38-like (Homo sapiens) (UniProt Q9Y2H1); conditions: at 10 µM
# Chain of Serine/threonine-protein kinase 38-like (Homo sapiens) (Q9Y2H1 2-464 limits assumed): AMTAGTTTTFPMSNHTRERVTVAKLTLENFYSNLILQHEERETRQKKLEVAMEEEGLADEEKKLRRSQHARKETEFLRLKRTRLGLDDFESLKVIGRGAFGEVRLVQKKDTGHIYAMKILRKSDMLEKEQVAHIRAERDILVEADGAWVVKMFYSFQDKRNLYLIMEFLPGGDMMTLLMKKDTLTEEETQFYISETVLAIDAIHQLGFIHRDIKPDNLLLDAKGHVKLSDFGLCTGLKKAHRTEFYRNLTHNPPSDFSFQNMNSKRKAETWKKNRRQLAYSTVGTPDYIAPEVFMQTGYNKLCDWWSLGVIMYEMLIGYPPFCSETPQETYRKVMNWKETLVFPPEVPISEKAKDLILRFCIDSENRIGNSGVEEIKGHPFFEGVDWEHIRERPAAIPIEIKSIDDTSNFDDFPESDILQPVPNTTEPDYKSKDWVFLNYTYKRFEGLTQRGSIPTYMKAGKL
# [6] = target: Fibroblast growth factor receptor 4 (Homo sapiens, UniProt P22455); assay: Selectivity interaction (Kinase panel (Invitrogen)) EUB0000639a FGFR4; conditions: at 200 nM
# Chain of Fibroblast growth factor receptor 4 (P22455 22-802 limits assumed): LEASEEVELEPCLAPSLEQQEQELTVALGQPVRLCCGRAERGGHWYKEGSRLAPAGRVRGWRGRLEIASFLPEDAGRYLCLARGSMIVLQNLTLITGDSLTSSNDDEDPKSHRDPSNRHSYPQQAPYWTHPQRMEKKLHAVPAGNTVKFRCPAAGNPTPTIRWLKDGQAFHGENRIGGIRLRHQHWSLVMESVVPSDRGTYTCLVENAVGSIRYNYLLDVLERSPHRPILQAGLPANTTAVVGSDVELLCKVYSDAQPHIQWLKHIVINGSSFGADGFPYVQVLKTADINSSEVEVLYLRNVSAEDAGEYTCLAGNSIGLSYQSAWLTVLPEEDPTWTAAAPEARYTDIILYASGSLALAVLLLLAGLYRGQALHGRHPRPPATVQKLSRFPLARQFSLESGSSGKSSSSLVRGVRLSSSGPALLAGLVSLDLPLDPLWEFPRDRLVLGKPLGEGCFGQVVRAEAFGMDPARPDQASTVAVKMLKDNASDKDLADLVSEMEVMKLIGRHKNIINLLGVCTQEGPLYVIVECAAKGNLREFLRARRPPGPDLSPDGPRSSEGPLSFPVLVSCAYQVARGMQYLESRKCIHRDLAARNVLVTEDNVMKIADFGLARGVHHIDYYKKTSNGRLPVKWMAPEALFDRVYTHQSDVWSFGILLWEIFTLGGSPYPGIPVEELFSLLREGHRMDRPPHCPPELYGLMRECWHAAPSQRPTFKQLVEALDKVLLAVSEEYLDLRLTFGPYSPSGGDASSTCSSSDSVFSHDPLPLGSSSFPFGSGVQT
# [7] = target: Serine/threonine-protein kinase SIK2 (Homo sapiens) (UniProt Q9H0K1); assay: Selectivity interaction (KinomeScan (DiscoverX)) EUB0000618a SIK2; conditions: at 10 µM
# Chain of Serine/threonine-protein kinase SIK2 (Homo sapiens) (Q9H0K1 whole entry, looked up): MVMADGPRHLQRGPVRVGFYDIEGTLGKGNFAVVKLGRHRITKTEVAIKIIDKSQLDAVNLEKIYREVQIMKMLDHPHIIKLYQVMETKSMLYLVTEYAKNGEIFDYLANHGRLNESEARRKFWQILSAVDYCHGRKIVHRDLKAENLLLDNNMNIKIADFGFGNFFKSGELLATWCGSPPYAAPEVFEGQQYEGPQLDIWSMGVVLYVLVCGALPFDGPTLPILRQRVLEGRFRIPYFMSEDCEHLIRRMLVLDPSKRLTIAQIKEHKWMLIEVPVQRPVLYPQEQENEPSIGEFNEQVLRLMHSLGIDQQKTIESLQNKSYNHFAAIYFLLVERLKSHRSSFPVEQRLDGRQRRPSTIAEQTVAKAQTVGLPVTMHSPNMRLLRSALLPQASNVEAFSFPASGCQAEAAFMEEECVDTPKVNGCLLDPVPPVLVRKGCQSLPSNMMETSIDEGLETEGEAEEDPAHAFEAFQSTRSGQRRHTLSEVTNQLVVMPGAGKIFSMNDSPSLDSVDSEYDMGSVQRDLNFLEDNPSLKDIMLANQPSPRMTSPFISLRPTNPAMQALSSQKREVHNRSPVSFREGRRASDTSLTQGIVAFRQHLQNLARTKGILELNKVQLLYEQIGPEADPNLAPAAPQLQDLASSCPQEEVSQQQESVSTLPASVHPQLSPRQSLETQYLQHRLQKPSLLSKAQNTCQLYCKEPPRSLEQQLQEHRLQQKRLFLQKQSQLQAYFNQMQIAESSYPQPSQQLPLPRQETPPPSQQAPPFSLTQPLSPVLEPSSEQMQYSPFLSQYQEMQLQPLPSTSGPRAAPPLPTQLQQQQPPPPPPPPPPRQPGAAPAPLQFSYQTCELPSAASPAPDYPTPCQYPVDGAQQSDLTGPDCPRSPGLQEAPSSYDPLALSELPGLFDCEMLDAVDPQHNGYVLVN
# [8] = target: Mitogen-activated protein kinase 14 (Homo sapiens, UniProt Q16539); assay: Selectivity interaction (ProQinase) EUB0000171b MAPK14
# Chain of Mitogen-activated protein kinase 14 (Q16539 whole entry): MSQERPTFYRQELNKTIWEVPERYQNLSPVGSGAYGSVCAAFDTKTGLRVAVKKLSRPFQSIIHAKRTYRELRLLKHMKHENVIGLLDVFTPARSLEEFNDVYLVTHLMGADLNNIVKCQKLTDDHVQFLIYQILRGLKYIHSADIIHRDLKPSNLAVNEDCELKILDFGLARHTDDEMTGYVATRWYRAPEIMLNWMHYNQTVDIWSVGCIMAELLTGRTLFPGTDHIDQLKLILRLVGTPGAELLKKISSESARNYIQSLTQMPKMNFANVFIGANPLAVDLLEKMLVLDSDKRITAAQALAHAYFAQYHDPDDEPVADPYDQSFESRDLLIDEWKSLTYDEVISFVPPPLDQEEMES
structure (smiles),measurement,setting,value
COc1cc(Nc2nc(C)cc(-c3cnn4nc(OC)ccc34)n2)cc(C(F)(F)F)c1,% of control,[1],87%
CN1Cc2nccc(-c3cn(C)nc3-c3ccc(F)cc3)c2C1=O,% of inhibition,[2],7%
Nc1cnc(N2CCc3cc(S(=O)(=O)Nc4c(F)cc(Cl)cc4F)cc(N4CCCC4=O)c32)nc1 [TP-020n],% of control,[3],100%
CN(C)CCCOc1ccc(-c2cc(NCCCn3cccn3)nc(S(C)(=O)=O)n2)cc1,dTM,[4],< 2 K
CCN(CC)CCCCNc1ncc2cc(-c3cc(OC)cc(OC)c3)c(NC(=O)NC(C)(C)C)nc2n1,% of control,[5],100%
CC[C@@H]1[C@H](F)C(=O)N[C@@H]1COc1nccc2cc(C(N)=O)c(OC)cc12 [ZIMLOVISERTIB],% of inhibition,[6],3.68%
O[C@H]1CC[C@H](Nc2ncc3nc(Nc4c(F)cc(F)cc4F)n([C@H]4CCOC4)c3n2)CC1,% of control,[7],33%
C=CC(=O)Nc1cccc(C(=O)Nc2ccc(Nc3cc(-c4[nH]c(SC)nc4C)ccn3)cc2)c1,% of control,[8]; at 1 µM,90%
same,% of control,[8]; at 5 µM,67%
